From patent US8747888B2, “Dermal delivery device with in situ seal” (Agile Therapeutics, Inc., priority 2007, dated 2014)

Assay: Control of loss of volatile components: amounts in the AI patch after storage, by gas chromatography
Type: physicochemical
Conditions: 12 wks, device with in situ seal
Experimental: A transdermal hormone delivery device was prepared comprising an internal backing layer, an AI layer, and a release liner. […] The device also comprised an overlay comprising a polyurethane […] backing, which is able to absorb large amounts of the volatile excipients, DMSO and ethyl lactate, an acrylic PSA coated onto the polyurethane foam, and a PIB PSA coated on top of the acrylic PSA. […] The release liner was a Mylar polyester film coated with a fluoropolymer release coating. […] The devices were placed in a 25° C. or 40° C. oven. After 6 weeks and 12 weeks, devices were removed from the oven and the active section of each device was separated from the overlay. […] (12 weeks exposure to 40° C. is intended to simulate 18 months exposure to room temperature (25° C.)).

Amount in the AI patch (40° C.): 9.20 wt % | Amount in the AI patch (room temp): 9.10 wt %
Structure (SMILES): CCCCCCCCCCCCOC(=O)C(C)O (centres unmarked) [Lauryl Lactate, lauryl lactate]
